{"source": "patent US11661437B2", "about": "“Steroid derivative regulators, method for preparing the same, and uses thereof” (priority 2018, dated 2023)", "key": {"[1]": {"assay": "Pharmacokinetic assay in Balb/c mice (plasma and brain tissue)", "assay_type": "in vivo", "conditions": "male, Balb/c, mouse, in vivo, po, 5 mg/kg; for MRT: Mean residence time MRT; for AUC(0-t): Area under curve AUC0-t; for AUC(0-inf): Area under curve AUC0-∞; for half-life: Half-life t1/2; for Cmax: Plasma concentration Cmax", "experimental": "Balb/c mice were used as test animals. The pharmacokinetic behavior in mice (plasma and brain tissue) of the compounds of Example 2, Example 5, Example 7, Example 12, Example 18, Example 23, Example 26, Example 38, Example 41, Example 50, Example 51 and Example 66 orally administrated at a dose of 5 mg/kg was studied.\nEach group had 24 male Balb/c mice. After an overnight fast, Balb/c mice were administrated p.o. with the test compound at an administration dose of 5 mg/kg and an administration volume of 10 mL/kg.\n0.2 ml of blood was taken from the heart before administration and at 0, 0.5, 1, 2, 4, 6, 8 and 24 hours after administration. The samples were stored in EDTA-K2 tubes, and centrifuged for 6 minutes at 4° C., 6000 rpm to separate the plasma. The plasma samples were stored at −80° C. The mice were sacrificed with CO2, and the whole brain tissue was taken out, weighed, placed in a 2 mL centrifuge tube and stored at −80° C.\n1) 160 μL of acetonitrile was added to 40 μL of the plasma sample for precipitation, and then the mixture was centrifuged for 5-20 minutes at 3500×g.\n2) 90 μL of acetonitrile containing the internal standard (100 ng/mL) was added to 30 μL of the plasma and brain homogenate samples for precipitation, and then the mixture was centrifuged for 8 minutes at 13000 rpm.\n3) 70 μL of the treated supernatant was taken and added to 70 μL of water, and mixed by vortex for 10 minutes. 20 μL of the mixture was taken to analyze the concentration of the test compound by LC/MS/MS. LC/MS/MS analysis instrument: AB Sciex API 4000 Qtrap.\n2.6 Liquid Chromatography Analysis • Liquid chromatography condition: Shimadzu LC-20AD pump. • Chromatographic column: Agilent ZORBAX XDB-C18 (50×2.1 mm, 3.5 μm); Mobile phase: Eluent A was 0.1% formic acid in water, and Eluent B was acetonitrile. • Flow rate: 0.4 mL/min • Elution time: 0-4.0 minutes the eluent is as follows:\nThe main parameters of pharmacokinetics were calculated by WinNonlin 6.1."}, "GABA-A receptor": {"test_system": "GABA-A receptor", "assay": "35S-TBPS binding assay on rat cerebral cortex cell membrane", "parameters": "species or system Sprague-Dawley rat", "conditions": "2 nM 35S-TBPS, GABA added, read-out: 35S-TBPS bindng test, IC50 on inhibiting the TBPS binding activity", "experimental": "1.2.1 Extraction of Cerebral Cortex Cell Membrane:\n1. The cerebral cortex of male Sprague-Dawley rat was isolated.\n2. A pre-chilled 0.32 M sucrose solution (one tablet of protease inhibitor was added per 100 ml) was added to the cerebral cortex (the volume of sucrose solution was 10 times the volume of the cerebral cortex). The mixture was crushed with a 50 ml glass tissue homogenizer in batches and mixed well.\n3. The mixture was centrifuged at 1500 g, 4° C. for 10 minutes, and the supernatant was collected.\n4. The mixture was centrifuged at 20000 g, 4° C. for 30 minutes, and the supernatant was discarded.\n5. The precipitate was resuspended with the pre-chilled phosphate buffer saline (PBS) (one tablet of protease inhibitor was added per 100 ml). An average of 4 ml of PBS was added per rat, and the mixture was mixed well with a glass tissue homogenizer.\n6. The mixture was centrifuged at 10000 g, 4° C. for 10 minutes, and the supernatant was discarded.\n7. Steps 5 and 6 were repeated three times.\n8. Finally, the precipitate was resuspended with 4 volumes of PBS. The resulting solution was dispensed, frozen in liquid nitrogen, and stored at −80° C.\n9. The protein concentration was measured by the bicinchoninic acid (BCA) method.\n1.2.2 ^35S-TBPS Binding Assay\n1. 230 μL of PBS was added to each well of a well plate with 1.1 ml volume.\n2. 60 μL of the cerebral cortex cell membrane (5 μg/μL) solution was added to each well, and the mixture was mixed well.\n3. The test compound (3 μL per well) was added, and the plate was incubated at 25° C. for 5 minutes. The DMSO concentration was 1%. The initial compound concentration was 1 NM, and a 3-fold dilution in gradient was carried out to obtain a total of 8 gradients and 2 replicates. 1% DMSO was used as a negative control, and 10 μM P026-2 was used as a positive control.\n4. GABA was added at a final concentration of […], and incubated at 25° C. for 5 minutes. 1 mM GABA solution was formulated, and 1.5 μL of the solution was added to each well.\n5. ^35S-TBPS was added at a final concentration of 2 nM. The concentration of isotope mother solution was 9.7 μM. After dilution with PBS for 100 times, 6 μL of the diluted isotope solution was added to each well.\n6. The plate was incubated at 4° C. for 20 hours.\n7. The FilterMate GF/C plate was pre-treated with 0.5% PEI, and incubated at 4° C. for 1 hour.\n8. The FilterMate GF/C plate was washed with Universal Harvester twice, 50 ml PBS each time.\n9. The reaction solution was transferred to the GF/C plate, and each well was washed 4 times with 900 μL PBS.\n10. The washed GF/C plate was placed at 55° C. and dried for 10 minutes.\n11. 40 μL of scintillation solution was added to each well, and the CPM value was read with TopCount.\n1.2.3 Experimental Data Processing Method:\nIn the experiment, the CPM (counts per minute) value was read with TopCount. According to the readings of the High control (DMSO) and the Low control (10 μM of the positive compound) experimental groups, the % inhibition was calculated based on the following formula: % Inhibition=100×(CPMHigh control−CPMSample)/(CPMHigh control−CPMLow control)\nThe IC50 of the compound was calculated according to the following 4-parameter nonlinear logic formula: Y=Bottom+(Top−Bottom)/(1+10^((Log IC50−X)*Hill Slope)),\nThe effect of the compound of the present invention on the TBPS binding activity was determined by the above test, and the measured IC50 values are shown in Table 1."}}, "data": [{"smiles": "C[C@@]1(O)CC[C@@]2(F)[C@H](CC[C@H]3[C@@H]4CC[C@H](C(=O)Cn5ncnn5)[C@@]4(C)CC[C@@H]32)C1", "note": "[Example 12, 1-((3R,5R,8S,9S,10R,13S,14S,17S)-10-Fluoro-3-hydroxy-3,13-dimethylhexadecahydro-1H-cyclopenta[a]phenanthren-17-yl)-2-(2H-tetrazol-2-yl)ethan-1-one]", "values": [{"measurement": "Mean residence time MRT", "setting": "[1]", "value": 0.73, "unit": "h"}, {"measurement": "Tmax", "setting": "[1]", "value": 0.5, "unit": "h"}, {"measurement": "MRT", "setting": "[1]", "value": 0.86, "unit": "h"}, {"measurement": "IC50", "setting": "GABA-A receptor", "value": 13.5, "unit": "nM"}]}, {"smiles": "Cc1nn(CC(=O)[C@H]2CC[C@H]3[C@@H]4CC[C@@H]5C[C@](C)(O)CC[C@]5(F)[C@H]4CC[C@]23C)cc1C#N", "note": "[Example 38, 1-(2-((3R,5R,8S,9S,10R,13S,14S,17S)-10-Fluoro-3-hydroxy-3,13-dimethylhexadecahydro-1H-cyclopenta[a]phenanthren-17-yl)-2-oxoethyl)-3-methyl-1H-pyrazole-4-carbonitrile]", "values": [{"measurement": "Area under curve AUC0-t", "setting": "[1]", "value": 1216.1, "unit": "ng·h/mL"}, {"measurement": "Area under curve AUC0-∞", "setting": "[1]", "value": 1230.2, "unit": "ng·h/mL"}, {"measurement": "Half-life t1/2", "setting": "[1]", "value": 1.14, "unit": "h"}, {"measurement": "Mean residence time MRT", "setting": "[1]", "value": 1.6, "unit": "h"}, {"measurement": "Plasma concentration Cmax", "setting": "[1]", "value": 746.7, "unit": "ng/mL"}, {"measurement": "AUC(0-t)", "setting": "[1]", "value": 1950, "unit": "ng·h/mL"}, {"measurement": "AUC(0-inf)", "setting": "[1]", "value": 1970, "unit": "ng·h/mL"}, {"measurement": "half-life", "setting": "[1]", "value": 1.08, "unit": "h"}, {"measurement": "MRT", "setting": "[1]", "value": 1.7, "unit": "h"}, {"measurement": "Tmax", "setting": "[1]; Peak time tmax", "value": 0.5, "unit": "h"}, {"measurement": "Cmax", "setting": "[1]", "value": 1110, "unit": "ng/mL"}, {"measurement": "IC50", "setting": "GABA-A receptor", "value": 34, "unit": "nM"}]}, {"smiles": "Cc1nnn(CC(=O)[C@H]2CC[C@H]3[C@@H]4CC[C@@H]5C[C@](C)(O)CC[C@]5(F)[C@H]4CC[C@]23C)n1", "note": "[Example 41, 1-((3R,5R,8S,9S,10R,13S,14S,17S)-10-Fluoro-3-hydroxy-3,13-dimethylhexadecahydro-1H-cyclopenta[a]phenanthren-17-yl)-2-(5-methyl-2H-tetrazol-2-yl)ethan-1-one]", "values": [{"measurement": "Mean residence time MRT", "setting": "[1]", "value": 0.91, "unit": "h"}, {"measurement": "Plasma concentration Cmax", "setting": "[1]", "value": 625.3, "unit": "ng/mL"}, {"measurement": "Tmax", "setting": "[1]", "value": 0.5, "unit": "h"}, {"measurement": "MRT", "setting": "[1]", "value": 0.94, "unit": "h"}, {"measurement": "Cmax", "setting": "[1]", "value": 1230, "unit": "ng/mL"}, {"measurement": "IC50", "setting": "GABA-A receptor", "value": 13.6, "unit": "nM"}]}, {"smiles": "C[C@@]1(O)CC[C@]2(F)C3CC[C@]4(C)[C@@H](C(=O)Cn5cc(C#N)c(Cl)n5)CC[C@H]4[C@@H]3CC[C@@H]2C1", "note": "(stereo partly drawn) [Example 51, 3-Chloro-1-(2-((3R,5R,8S,10R,13S,14S,17S)-10-fluoro-3-hydroxy-3,13-dimethylhexadecahydro-1H-cyclopenta[a]phenanthren-17-yl)-2-oxoethyl)-1H-pyrazole-4-carbonitrile]", "values": [{"measurement": "Area under curve AUC0-t", "setting": "[1]", "value": 1625.9, "unit": "ng·h/mL"}, {"measurement": "Area under curve AUC0-∞", "setting": "[1]", "value": 1796.0, "unit": "ng·h/mL"}, {"measurement": "Half-life t1/2", "setting": "[1]", "value": 2.19, "unit": "h"}, {"measurement": "Mean residence time MRT", "setting": "[1]", "value": 3.28, "unit": "h"}, {"measurement": "Plasma concentration Cmax", "setting": "[1]", "value": 512.3, "unit": "ng/mL"}, {"measurement": "Tmax", "setting": "[1]", "value": 1, "unit": "h"}, {"measurement": "AUC(0-t)", "setting": "[1]", "value": 1960, "unit": "ng·h/mL"}, {"measurement": "AUC(0-inf)", "setting": "[1]", "value": 2080, "unit": "ng·h/mL"}, {"measurement": "half-life", "setting": "[1]", "value": 1.93, "unit": "h"}, {"measurement": "MRT", "setting": "[1]", "value": 2.65, "unit": "h"}, {"measurement": "Tmax", "setting": "[1]; Peak time tmax", "value": 0.5, "unit": "h"}, {"measurement": "Cmax", "setting": "[1]", "value": 711, "unit": "ng/mL"}, {"measurement": "IC50", "setting": "GABA-A receptor", "value": 14.3, "unit": "nM"}]}, {"smiles": "C[C@@]1(O)CC[C@@]2(F)[C@H](CC[C@H]3[C@@H]4CC[C@H](C(=O)COc5cnc(C(F)(F)F)nc5)[C@@]4(C)CC[C@@H]32)C1", "note": "[Example 66, 1-((3R,5R,8S,9S,10R,13S,14S,17S)-10-Fluoro-3-hydroxy-3,13-dimethylhexadecahydro-1H-cyclopenta[a]phenanthren-17-yl)-2-((2-(trifluoromethyl)pyrimidin-5-yl)oxy)ethan-1-one]", "values": [{"measurement": "Half-life t1/2", "setting": "[1]", "value": 3.60, "unit": "h"}, {"measurement": "Mean residence time MRT", "setting": "[1]", "value": 5.01, "unit": "h"}, {"measurement": "Tmax", "setting": "[1]", "value": 1, "unit": "h"}, {"measurement": "half-life", "setting": "[1]", "value": 4.39, "unit": "h"}, {"measurement": "MRT", "setting": "[1]", "value": 5.54, "unit": "h"}, {"measurement": "Tmax", "setting": "[1]; Peak time tmax", "value": 0.5, "unit": "h"}, {"measurement": "IC50", "setting": "GABA-A receptor", "value": 27, "unit": "nM"}]}]}
